Laboratory results from PMC3684770 (Free Radical Biology & Medicine, 2013).
Like-named read-outs stand apart in the source and are kept apart here.

Key:
NSC34 cells = assay: NSC34 oxidative stress assay (serum withdrawal, DCF); conditions: for NSC34 oxidative stress assay Toxic dose: minimum dose at which toxicity was observed; for Emax: NSC-34, 24 h, read-out: NSC34 oxidative stress assay Max reduction
Procedure: (§1) Media were then replaced with serum-free, phenol-free media for 5 h.

[1] = tested on: 1321N1 astrocyte cell line; assay: 1321N1 oxidative stress assay (serum withdrawal, DCF); conditions: for 1321N1 oxidative stress assay Toxic dose: minimum dose at which toxicity was observed; for Emax: 1321-N1, 24 h, read-out: 1321N1 oxidative stress assay Max reduction
Procedure: as §1

Nrf2-ARE pathway = assay: ARE reporter assay in CHO 4xARE-TK-GFP cells (Spectrum library hits); conditions: for Toxic dose: lowest dose at which a reduction in GFP fluorescence was observed; for Cmax: read-out: Cmax (concentration inducing a maximal response), CHO-4xARE-TK, 24 hours, serum free medium
Procedure: The Z′ score was calculated as follows Z′=1−(3SD^++3SD^−)/(Ave^+–Ave^−) where SD^+ = standard deviation of positive control wells; SD^− = standard deviation of negative control wells; Ave^+ = average fluorescence reading of positive control wells; Ave^− = average fluorescence reading of negative control wells.
Media was removed by hand and replaced (1 compound/well) with the Spectrum library diluted to 10 μM in 0.1% DMSO using a Q-bot liquid handling system (Genetix, New Milton, UK). […] The TK-GFP CHO ARE cell line was screened twice in a single point assay and the control TK-GFP CHO cell line was screened once to eliminate false positives.
The compounds were applied in triplicate to confluent cells in 96 well plates in serum free medium for 24 hours and the induction of GFP measured in a fluorescence plate reader.
In order to screen the Spectrum collection of 2000 molecules the reporter assay was optimised in […]. To assess the suitability of the assay for library screening, a Z’ score calculation was performed by treating alternate wells with vehicle (0.1% DMSO) and 10 µM Ebselen as a positive control (see calculation in Methods). […] The library was subsequently screened at a single point concentration of 10µM for every compound. Drug library dilutions and plating were performed with a Q-BOT liquid handling system and both the 4xARE-TK-GFP reporter cell line and TK-GFP control cell line were tested for their response to the compounds. Hits were identified as having data points more than three standard deviations above the background level, which was the average value of 24 wells treated with vehicle (0.1% DMSO) only. Hit compounds were checked to see if they generated a response in the control cell line, for example by non-specific activation of transcription or autofluorescence. […] The library screen was repeated once in the 4xARE –TK-CHO cell line and compounds classed as hits in both screens were taken forward for further assessment.

C6 astrocyte cell line = assay: C6 oxidative stress assay (serum withdrawal, DCF); conditions: for IC50: read-out: C6 oxidative stress assay IC50; for C6 oxidative stress assay Toxic dose: minimum dose at which toxicity was observed; for Emax: 24 h, read-out: C6 oxidative stress assay Max reduction
Procedure: as §1

[2] = maximum % inhibition of DCF signal, negative = prooxidant
[3] = maximum % inhibition of DCF signal
[4] = CHO ARE reporter, 7-point concentration response
[5] = average fold over baseline at the maximal response, CHO cells, 24 h
[6] = Homo sapiens, 1321-N1, read-out: 1321N1 oxidative stress assay IC50

| Compound | NSC34 oxidative stress assay Toxic dose (NSC34 cells) | 1321N1 oxidative stress assay Toxic dose [1] | Toxic dose (Nrf2-ARE pathway) | C6 oxidative stress assay Toxic dose (C6 astrocyte cell line) | Emax (NSC34 cells; Mus musculus) | Emax ([1]; Homo sapiens) | EC50 (Nrf2-ARE pathway; Cricetulus griseus) | Emax (C6 astrocyte cell line; Rattus norvegicus, Astrocyte) | IC50 (C6 astrocyte cell line; Rattus norvegicus, Astrocyte) | IC50 [1, 6] | other results |
| --- | --- | --- | --- | --- | --- | --- | --- | --- | --- | --- | --- |
| 3-α-Hydroxygedinin |  |  |  |  |  |  |  |  |  |  | NSC34 oxidative stress assay Max reduction (NSC34 cells): 14%; 1321N1 oxidative stress assay Max reduction [1]: 25%; Fold GFP induction (Nrf2-ARE pathway): 3.01 fold; C6 oxidative stress assay Max reduction (C6 astrocyte cell line): 42%; IC50 (C6 astrocyte cell line): 3.22 µM |
| 3β Hydroxydeoxydesacetoxy-7-oxogedunin | 3 µM | None | 30 µM | None |  |  |  |  |  |  | NSC34 oxidative stress assay Max reduction (NSC34 cells; [2]): 0%; 1321N1 oxidative stress assay Max reduction [1, 3]: 62%; IC50 ([1]; read-out: 1321N1 oxidative stress assay IC50, 24-h preconditioning, 6-h serum withdrawal, DCF fluorescence): 3.96 µM; EC50 (Nrf2-ARE pathway; [4]): 8.71 µM; Fold GFP induction (Nrf2-ARE pathway; [5]): 2.55 fold; C6 oxidative stress assay Max reduction (C6 astrocyte cell line; [3]): 67%; IC50 (C6 astrocyte cell line; 24-h preconditioning, 6-h serum withdrawal, DCF fluorescence): 3.07 µM |
| COc1cc(O)c(C)c(O)c1 [2,6-Dihydroxy-4-methoxytoluene] | None | None | 100 µM | 10 µM | 28% | 40% | 45 µM | 16% | 5.29 µM |  | IC50 (NSC34 cells; Mus musculus, NSC-34, read-out: NSC34 oxidative stress assay IC50): ~3.26 µM |
| Cc1[nH]c2ccccc2c1CN(C)C [2-Methyl gramine] | 3 µM | none | 100 µM | none | -30% | 36% | 3 µM | 36% | 32 µM | 11 µM | maximal fold induction (Nrf2-ARE pathway; Cricetulus griseus, CHO, 24 h, read-out: Fold GFP induction): 2.27 |
| CC(=O)OC1CC[C@@]2(C)C(CC[C@H]3[C@@H]4CC=C(C(C)=O)[C@@]4(C)C(=O)C[C@@H]32)C1 (some centres unmarked) [3 Acetoxypregn-16-en-12,20-dione] | None | None | 30 µM | None | 0% | 75% | 2.98 µM | 50% | 5.34 µM | 12.4 µM |  |
| COc1cccc(O)c1O [3-Methoxycatechol] | 0.3 µM | none | 100 µM | 10 µM | -13% | 39% | 15.4 µM | 46% | 1.2 µM |  |  |
| Cc1cc(O)c(C)c(O)c1C(=O)O [3-Methylorsellinic acid] | 0.3 µM | none | 100 µM | none | -12% | 53% | 9.59 µM | 56% | 3.1 µM | 3.26 µM |  |
| CC(=O)Oc1ccc(O)cc1 [4-Acetoxyphenol] | none | none | 100 µM | none | -70% | 42% | 2.91 µM | 0% |  | 0.298 µM |  |
| COc1ccc(/C=C/C(=O)c2ccccc2)cc1 [4-Methoxychalcone] | None | None | 100 µM | None | 24% | 30% | 15 µM | 82% | 3.55 µM | 3.6 µM | Fold GFP induction (Nrf2-ARE pathway; [5]): 2.13 fold |
| CC(=O)O[C@@H]1CC2C(C)(C)C=CC(=O)[C@]2(C)C2CC[C@@]3(C)[C@H](c4ccoc4)OC(=O)C4OC43[C@@]21C (some centres unmarked) [Isogedunin] | 1 µM | None | None |  |  |  |  |  |  |  | NSC34 oxidative stress assay Max reduction (NSC34 cells; [2]): 0%; 1321N1 oxidative stress assay Max reduction [1, 3]: 10%; EC50 (Nrf2-ARE pathway; [4]): > 100 µM; Fold GFP induction (Nrf2-ARE pathway; [5]): 3.11 fold |
| CC(C)(C)c1cc(O)ccc1O [tBHQ, tert-butyl hydroquinone, reference compound] |  |  |  |  |  |  |  |  |  |  | Cmax (Nrf2-ARE pathway): 10 µM |
| epigallocatechin-3-gallate [EGCG, reference compound] |  |  |  |  |  |  |  |  |  |  | Cmax (Nrf2-ARE pathway): 100 µM |
